Measured values: PubChem BioAssay AID2060599 (Molecular Pharmacology Branch, DTP, NCI, 2025)

Tested on: 817829-284-R-J1-PDC complex spheroids, viability
Test: Anticancer human tumor 817829-284-R-J1-PDC patient-derived colon adenocarcinoma cell line growth inhibition [CLK]
Conditions: for IC50: curve of first compound; for viability, T/C: stronger effect = lower value; active means viability on the fitted dose curve at most 10% of control; inactive means the rest
Text: A high-throughput screen of multi-cell type tumor spheroids was designed to identify active combinations of […] and targeted small molecules. Complex spheroids include a stromal component modeled by human endothelial cells (HUVEC) and fibroblasts modeled by human mesenchymal stem cells (MSCs). The concentration ranges selected for each drug and investigational agent were based upon clinically achievable concentrations if the clinical Cmax of the agent was known.
Compounds. The drugs and investigational agents: cirtuvivint (SM08502; NSC835563), CC-671 (NSC850746), vemurafenib (NSC761431), tapotoclax (NSC804041), sotorasib (NSC818433), adagrasib (NSC831453), MRTX-1133 (NSC836407), BAY2416964 (NSC825713), copanlisib (NSC816437), inavolisib (NSC800729), abemaciclib (NSC768073), osimertinib (NSC779217), entinostat (NSC756642), eltanexor (KPT-8602, NSC794443), venetoclax (NSC766270), ceralasertib (NSC777638), bortezomib (NSC756655), olaparib (NSC753686), talazoparib (NSC767125), alisertib (NSC759677), peposertib (NSC802822), gemcitabine (NSC613327), 5-fluorouracil (NSC19893), SN-38 (NSC673596), oxaliplatin (NSC266046), paclitaxel (NSC125973), and doxorubicin (NSC123127), were obtained from the National Cancer Institute (NCI) Developmental Therapeutics Program Chemical Repository. The FDA-approved anticancer drug set is available from the Developmental Therapeutics Program at https://dtp.cancer.gov/organization/dscb/obtaining/available plates.htm. […] The stock solutions were prepared in dimethyl sulfoxide (DMSO, Sigma-Aldrich, St. Louis, MO, cat. D2650), except for the platinum complexes which were prepared in saline (Quality Biological, Gaithersburg, MD, cat. 114-055-101), at 800-fold the tested concentration and stored at -70 degrees C prior to their use. All drugs and investigational agents were tested over a range starting from a high concentration at or near the clinical Cmax and decreasing in half-log increments. If the clinical Cmax for an agent had not been determined, the highest concentration tested was 10 microM.
Cell Culture. All cells were maintained in an incubator at 37 degrees C and 5% CO2 with 95% humidity. The PDC lines were cultured according to standard operating procedures established by the NCI PDMR. Briefly, all PDCs were thawed and cultured in Matrigel-coated flasks prepared with a working solution of 1X Ham's F-12 nutrient mix, without supplementation (Invitrogen, Waltham, MA, cat. 11765054), 100 U/mL penicillin-streptomycin (Invitrogen, cat. 15140122), and 2.5% Matrigel (Corning Inc., Corning, NY, cat. 354248) for the first three passages. The 947758-054-R-J2-PDC line was cultured in 6B/Colon 1A media, which includes advanced DMEM/F-12 (Thermo Fisher Scientific, cat. 12634028), 10 mM HEPES (Thermo Fisher Scientific, cat. 15630080), 1X GlutaMAX supplement (Thermo Fisher Scientific, cat. 35050061), 0.1 mg/mL primocin (InvivoGen, cat. ant-pm-2), 10% defined fetal bovine serum, heat inactivated (HyClone Laboratories Inc., cat. SH30070.03HI), 1.25 mM N-Acetyl-L-cysteine (Sigma-Aldrich, cat. A9165), 10 mM nicotinamide (Sigma-Aldrich, cat. N0636), 1X B-27 supplement (Thermo Fisher Scientific, cat. 17504044), 1X N-2 supplement (Thermo Fisher Scientific, cat. 17502048), and 10 microM Y-27632 dihydrochloride (Tocris Bioscience, cat. 1254). The 876862-298-R-J1-PDC was cultured in 6E media, which includes all 6B/Colon 1A media components plus 50% L-WRN conditioned media (ATCC, cat. CRL-3276), 50 ng/mL recombinant human EGF recombinant protein (hEGF; Thermo Fisher Scientific, cat. PHG0311), 10 ng/mL recombinant human fibroblast growth factor 10 (hGFG-10; PeproTech, cat. 100-26), 1 ng/mL recombinant human fibroblast growth factor 2 (hFGF-2; PeproTech, cat. 100-18B), and 1 µM prostaglandin E2 (PGE2; Tocris, cat. 2296). The 227483-062-R1-J1-PDC line was cultured in Panc media, containing all 6E components except hFGF-2, with the addition of 500 nM SB-431542 (Selleckchem, cat. S1067) and 10 nM gastrin (Tocris, cat. 3006). […]

[1] = second compound 0.0316 µM, first compound 0.0316 µM
[2] = second compound 0.0316 µM, first compound 0.1 µM
[3] = second compound 0.0316 µM, first compound 0.316 µM
[4] = second compound 0.0316 µM, first compound 1 µM
[5] = second compound 0.0316 µM, first compound 3.16 µM
[6] = second compound 0.0316 µM, first compound 10 µM
[7] = second compound 0.1 µM, first compound 0.0316 µM
[8] = second compound 0.1 µM, first compound 0.1 µM
[9] = second compound 0.1 µM, first compound 0.316 µM
[10] = second compound 0.1 µM, first compound 1 µM
[11] = second compound 0.1 µM, first compound 3.16 µM
[12] = second compound 0.1 µM, first compound 10 µM
[13] = second compound 0.316 µM, first compound 0.0316 µM
[14] = second compound 0.316 µM, first compound 0.1 µM
[15] = second compound 0.316 µM, first compound 0.316 µM
[16] = second compound 0.316 µM, first compound 1 µM
[17] = second compound 0.316 µM, first compound 3.16 µM
[18] = second compound 0.316 µM, first compound 10 µM
[19] = second compound 1 µM, first compound 0.0316 µM
[20] = second compound 1 µM, first compound 0.1 µM
[21] = second compound 1 µM, first compound 0.316 µM
[22] = second compound 1 µM, first compound 1 µM
[23] = second compound 1 µM, first compound 3.16 µM
[24] = second compound 1 µM, first compound 10 µM
[25] = second compound 3.16 µM, first compound 0.0316 µM
[26] = second compound 3.16 µM, first compound 0.1 µM
[27] = second compound 3.16 µM, first compound 0.316 µM
[28] = second compound 3.16 µM, first compound 1 µM
[29] = second compound 3.16 µM, first compound 3.16 µM
[30] = second compound 3.16 µM, first compound 10 µM
[31] = second compound 10 µM, first compound 0.0316 µM
[32] = second compound 10 µM, first compound 0.1 µM
[33] = second compound 10 µM, first compound 0.316 µM
[34] = second compound 10 µM, first compound 1 µM
[35] = second compound 10 µM, first compound 3.16 µM
[36] = second compound 10 µM, first compound 10 µM
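Further: spheroids exposed to the agents for seven days before readout.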

CC(CO)NC(=O)c1cc(-c2ccc(Cl)cc2)nn(-c2cnn(C)c2)c1=O (centres undefined) + CN1CCN(c2cc(C(=O)Nc3cc4cc(-c5cnn(C)c5)ccc4cn3)ccn2)CC1
active: viability, T/C [13] 2.63% | viability, T/C [14] 2.2% | viability, T/C [15] 2.62% | viability, T/C [16] 2.67% | viability, T/C [17] 2.25% | viability, T/C [18] 2.13% | viability, T/C [19] 0.11% | viability, T/C [20] 0.12% | viability, T/C [21] 0.15% | viability, T/C [22] 0.11% | viability, T/C [23] 0.11% | viability, T/C [24] 0.13% | viability, T/C [25] 0.18% | viability, T/C [26] 0.27% | viability, T/C [27] 0.22% | viability, T/C [28] 0.18% | viability, T/C [29] 0.29% | viability, T/C [30] 0.19% | viability, T/C [31] 0.11% | viability, T/C [32] 0.14% | viability, T/C [33] 0.17% | viability, T/C [34] 0.21% | viability, T/C [35] 0.23% | viability, T/C [36] 0.19%
< 31.6 nM: IC50 (second compound 0.1 µM) | IC50 (second compound 0.316 µM) | IC50 (second compound 1 µM) | IC50 (second compound 3.16 µM) | IC50 (second compound 10 µM)
3780 nM: IC50 (second compound 0.0316 µM)
inactive: viability, T/C [1] 62.9% | viability, T/C [2] 71.7% | viability, T/C [3] 61.2% | viability, T/C [4] 78.3% | viability, T/C [5] 53.1% | viability, T/C [6] 33% | viability, T/C [7] 18.3% | viability, T/C [8] 15.8% | viability, T/C [9] 16.9% | viability, T/C [10] 15.6% | viability, T/C [11] 15.4% | viability, T/C [12] 14.6%

C=CC(=O)N1CCN(c2nc(=O)n(-c3c(C)ccnc3C(C)C)c3nc(-c4c(O)cccc4F)c(F)cc23)C(C)C1 (centres undefined) + CNC(=O)c1ccc(Nc2nc(OC3CCCC3)c3c(-c4ccc5nc(C)oc5c4)c[nH]c3n2)c(OC)c1
inactive: viability, T/C [1] 35.9% | viability, T/C [2] 44.3% | viability, T/C [3] 34.6% | viability, T/C [4] 24.2% | viability, T/C [5] 25.9% | viability, T/C [6] 15% | viability, T/C [7] 30.9% | viability, T/C [8] 22.7% | viability, T/C [9] 30.4% | viability, T/C [10] 25.1% | viability, T/C [11] 22.2% | viability, T/C [12] 22.9% | viability, T/C [13] 28.8% | viability, T/C [14] 35.2% | viability, T/C [15] 30.8% | viability, T/C [16] 22.8% | viability, T/C [17] 31.2% | viability, T/C [18] 17.4% | viability, T/C [19] 22.3% | viability, T/C [20] 20.8% | viability, T/C [21] 18.2% | viability, T/C [22] 19.8% | viability, T/C [23] 20% | viability, T/C [24] 12.4% | viability, T/C [25] 22.4% | viability, T/C [26] 25.8% | viability, T/C [27] 15.9% | viability, T/C [28] 22.2% | viability, T/C [29] 23.5% | viability, T/C [30] 10.6% | viability, T/C [31] 27.2% | viability, T/C [32] 23.3% | viability, T/C [33] 22% | viability, T/C [34] 27.3% | viability, T/C [35] 19.1% | viability, T/C [36] 12%
< 31.6 nM: IC50 (second compound 0.0316 µM) | IC50 (second compound 0.1 µM) | IC50 (second compound 0.316 µM) | IC50 (second compound 1 µM) | IC50 (second compound 3.16 µM) | IC50 (second compound 10 µM)
